For four substances, binding preference, binding and reported binding results are on record in paper PMC6979384, “Characterization of the plant homeodomain (PHD) reader family for their histone tail interactions” (Epigenetics & Chromatin, 2020).

Like-named read-outs stand apart in the source and are kept apart here.

One test concerns CHD5 (PCC). The test can be described thus: PHD finger domain microarray. It counts as binding, human. An excerpt: (§1) To define the histone binding preferences of the PHD finger proteome, we expressed and purified 123 annotated human PHD-containing domains as GST-tagged recombinant fusions from E. coli. The recombinant proteins consisted of either PHD fingers in isolation, or as tandem domains if a given PHD finger was located adjacent to another reader domain (e.g., one or more PHD fingers, Tudor, chromo and/or bromodomains) (Additional file 1: Table S1). These GST fusions were printed in duplicate on nitrocellulose-coated microarray slides and probed with biotinylated peptides that represented the N-termini of H3, H4, H2A or H2B (Fig. 1a and Additional file 2: Figure S1). As the majority of PHD readers thus far characterized are H3K4me0/3 readers, we included additional peptides (H3K4 as either mono-, di-, or trimethylated) to further determine any H3K4 methyl preference (Additional file 2: Figure S2 and Fig. 1b). As a control, we also probed these microarrays with an α-Tubulin peptide (a.a. 30–50) that would not be predicted to interact with PHD fingers (Additional file 2: Figure S1). […] We also cannot exclude the possibility that some PHD fingers might not be functionally active on the microarrays (perhaps due to misfolding or the lack of an important adjacent region).
(§2) The protein domain microarray was designed to include 123 GST-tagged PHD-domain containing recombinant proteins. Protein domain microarray development and probing was as previously. Briefly, recombinant proteins were synthesized and cloned into pGEX-4T-1 vector by Biomatik Corporation. These GST-PHD readers were subsequently expressed, purified, and spotted in duplicate onto nitrocellulose-coated glass slides (Oncyte Avid slides, Grace Bio-Labs) using a pin arrayer (Aushon 2470, Aushon). For probing, microarray slides were blocked with 3% milk, 3% bovine serum albumin, 0.1% Tween 20 in PBS. Biotinylated peptides were pre-labeled with streptavidin-Cy3 fluorophore (GE Healthcare) and incubated with the blocked array slides. Slides were then washed with PBST and allowed to air dry. Fluorescent interactions were visualized using a GenePix 4200A Microarray Scanner (Molecular Devices).

Test [1] concerns PHRF1 (RP). Put plainly: PHD finger domain microarray. It counts as binding, human.
Source text: as §1, §2

Another test has as its system CHD4 (PPCC). The test can be described thus: dCypher AlphaScreen Phase B (full peptide screen). It counts as binding, human. The conditions noted are these: reader 0.65 nM, 100 nM peptide, 23 °C, n = 2. How it is done:
(§3) X-axes are log(protein concentration (M)) at constant peptide concentration (100 nM); Y-axes are AlphaScreen counts, representing relative strength of binding (n = 2; error bars are S.D.). i Heat map represents relative binding to H3 N-terminal peptides (left) by PHD-containing GST-tagged proteins (top) using the dCypher AlphaScreen platform. Protein concentrations can be found in Additional file 5: Table S4. Binding strength is indicated by color gradient from green to yellow (stronger to weaker). […] Alpha counts (n = 2) were normalized individually for each protein to the highest signal for each respective assay. For full dCypher peptide screen data, see Additional file 4: Table S3
(§4) Once the optimal protein concentration ranges for each of the eight readers were determined, we conducted the full dCypher peptide screen (293 histone peptides) (Fig. 3i; Additional file 4: Table S3).
(§5) The dCypher peptide screen assay was performed as previously described. Briefly, 5 μL of GST-tagged reader domains (optimal protein concentration for library screening determined by initial binding curves to candidate peptides) were incubated with 5 μL of 400 nM (100 nM Final) biotinylated histone peptides (EpiCypher) for 30 min at 23 °C in 1× AlphaLISA Epigenetics buffer + epigenetics buffer supplement (PerkinElmer, AL1008) in a 384-well plate. A 10 μL mix of 5 µg/mL (2.5 μg/mL final) glutathione Acceptor beads (PerkinElmer, AL109M) and 10 μg/mL (5 μg/mL final) streptavidin Donor beads (PerkinElmer, 6760002) was prepared in 1× [Epigenetics buffer + supplement] and added to each well. Plates were incubated at 23 °C in subdued lighting for 60 min and AlphaLISA signal measured on a PerkinElmer 2104 EnVision (680 nm laser excitation, 570 nm emission filter ± 50 nm bandwidth).
(§6) Supplementary file 13072_2020_328_MOESM4_ESM.xlsx: Additional file 4: Table S3. dCypher Results. Excel Tab Peptide Phase A is a compiled set of binding data: chromatin reader titration vs. several peptide targets. Data is presented as raw Alpha counts in duplicates at each concentration tested. Excel Tab Peptide Phase B is a compiled set of binding data: chromatin reader at optimized concentrations vs. entire 293 peptide library. Data is presented as the average and standard deviation of duplicates. […] Key: red = strong binding; blue = weak/no binding.

Test [2] relates to PHRF1 (RP). The test can be described thus: dCypher AlphaScreen Phase B (full peptide screen). It counts as binding, human. Conditions: reader 15 nM, 100 nM peptide, 23 °C, n = 2. How it is done:
as §3, §4, §5, §6

A further test concerns MLL5 PHD finger. Put plainly: PHD finger domain microarray. It is filed as binding, human.
Source text: as §1, §2

Another test has as its system PHD finger of MLL5. The conditions noted are these: cited from earlier work. An excerpt: Our findings from domain and peptide microarray confirm the reported binding preferences of many PHD proteins such as those of the ING and PHF families. […] We surmise that the basis of this differenc ...
The subject of the next test is KDM5B (PHD3). Conditions: cited from earlier work. An excerpt: While findings between the domain microarrays and peptide microarrays largely agreed, there were some interesting differences. […] It should be noted that the comparison made here is between the H3K4me3 + K9ac + K18ac and the H3K4me0 + K9ac + K18ac peptides. Due to the limited binding, if any, ...

In the case of “H3 (1-20): unmodified H3 N-terminal peptide (1–20)”, the binding preference result in the test with CHD5 (PCC) was “no preference”; in the test on PHRF1 (RP) [1] (listed as H3K4me0) it was “no preference on the domain array”; in the test on PHRF1 (RP) [1] (listed as unmodified H3 tail), “readers of the unmodified H3 tail”. For the same substance, the binding entry in the test with CHD4 (PPCC) was “clearer specificity for the H3K4me0 peptide over the methylated species”; in the test with PHRF1 (RP) [2] it was “more limited interactions”.

On to H3K4me2: H3 1-20 [Peptide H3K4me2], for which, in the test with MLL5 PHD finger, the binding preference result is listed as “strong preference”. Further, in the test on PHD finger of MLL5, the reported binding result is on record as “discrepancies in whether the PHD finger of MLL5 is a H3K4me3 or H3K4me2 reader”.

As for H3K4me3: H3 1-20 [Peptide H3K4me3], the binding preference result is reported as “no preference” in the test on CHD5 (PCC), “strong preference” in the test with MLL5 PHD finger and “no preference” in the test with PHRF1 (RP) [1]. For the same substance, the reported binding entry was “reported to bind H3K4me3” in the test with KDM5B (PHD3) and “discrepancies in whether the PHD finger of MLL5 is a H3K4me3 or H3K4me2 reader” in the test on PHD finger of MLL5.

Consider H3K9me3: H3 1-20 [Peptide H3K9me3], for which the binding entry in the test on CHD4 (PPCC) is reported as “ability to bind to the peptides containing H3K9me3”; with PHRF1 (RP) [2], “more limited interactions”.
